Laboratory results from patent US20240122923A1, “METHODS OF TREATING HIDRADENITIS SUPPURATIVA” (AbbVie Inc., priority 2022, published 2024).
Values joined by “and” are separate entries in the source; they are usually repeats but may differ in a detail not shown here. Equal values may be shown once.

What was measured:
Assay type in all cases: in vivo
[1] = test system: adult human subjects with moderate to severe Hidradenitis Suppurativa (HS); assay: Phase 2 randomized, double-blind, placebo-controlled study of upadacitinib, efficacy incl. post-hoc analysis through week 40; details: for subjects achieving HiSCR at Week 12, n (%): upadacitinib 30 mg QD oral, N=47; for subjects achieving Pain NRS30 at Week 12 among subjects with Baseline NRS ≥ 3, n (%): upadacitinib 30 mg QD, N=33
Description: (§1) This study was a Phase 2, multicenter, randomized, double-blind, parallel-group, placebo-controlled study to evaluate the efficacy and safety of upadacitinib in adult human subjects with moderate to severe Hidradenitis Suppurativa (HS).
(§2) The duration of the study was 57 weeks, including an approximately 35-day screening period followed by a 48-week double-blinded treatment period and a 30-day follow-up visit after the last dose of study drug. Subjects were randomized in a 2:1 ratio to 1 of the 2 arms as shown below: • Upadacitinib 30 mg once daily (QD) (N=40): Daily oral doses of upadacitinib 30 mg from the Baseline visit through Period 1 and Period 2. • Placebo (N=20): Placebo for upadacitinib from the Baseline visit up to the Week 12 visit (Period 1). At Week 12, subjects were switched to blinded upadacitinib 15 mg QD through Period 2.
The primary objective of this study was to assess the efficacy and safety of upadacitinib 30 mg QD in adult subjects with moderate to severe HS. The primary efficacy objective was assessed based on the achievement of HiSCR after 12 weeks treatment.
The primary endpoint was Hidradenitis Suppurativa Clinical Response (HiSCR) at Week 12, where HiSCR is defined as at least 50% reduction in the total abscess and inflammatory nodule (AN) count with no increase in abscess count and no increase in draining fistula count relative to Baseline.
The secondary endpoint was Pain Numerical Rating Scale (NRS30) at Week 12: the achievement of at least 30% reduction and at least 1 unit reduction from Baseline in NRS30 in Patient's Global Assessment of Skin Pain (PGA Skin Pain) at Week 12, among subjects with Baseline NRS≥3.
The following additional efficacy endpoints were evaluated: • 1. Experience of flare, defined as an increase in AN count of at least 25% with a minimum increase of 2 relative to Baseline • 2. Change from Baseline in Dermatology Life Quality Index (DLQI) • 3. Change from baseline in Hidradenitis Suppurativa Symptom Assessment (HSSA) • 4. Change from baseline in HS-related swelling, assessed based on the HSSA • 5. Change from baseline in HS-related odor, assessed based on the HSSA • 6. Change from baseline in HS-related worst drainage, assessed based on the HSSA
For the primary and secondary endpoints, comparisons of upadacitinib vs. placebo were made with 3 different analysis strategies, as summarized in Table 1 below:
For the additional endpoints, comparisons were made for upadacitinib vs. historical reference value of placebo, and upadacitinib vs. in-trial placebo subjects.
For categorical variables, the primary approach to handle missing data was Non-Responder Imputation [NRI] incorporating Multiple Imputation [MI]. For continuous variables, missing data was handled by Mixed-effect Model Repeat Measurement (MMRM). Missing data for long-term efficacy in Period 2 were handled based on the observed case (OC).
A post-hoc efficacy assessment through week 40 was performed in the study of Example 1. The analysis included the proportion of patients achieving ≥75% and ≥90% reduction from baseline in AN count with no increase in abscess or draining fistula count (HiSCR 75 and HiSCR 90, respectively) and the proportion of patients achieving ≥55% reduction in International HS Severity Score System endpoint (IHS4-55), which dynamically assesses inflammatory nodules, abscesses, and draining tunnels.

[2] = test system: adult human subjects with moderate to severe Hidradenitis Suppurativa (HS); assay: as above; details: UPA 30 mg QD; N=47; flare = AN count increase ≥25% with minimum increase of 2
[3] = test system: adult human subjects with moderate to severe Hidradenitis Suppurativa (HS); assay: Phase 2 study of upadacitinib in HS, safety (TEAEs, discontinuation due to adverse event)
Description: as §1, §2
Treatment-emergent adverse events (TEAEs), adverse events of interests (AESIs), and potentially clinically important (PCI) laboratory changes were monitored in Period 1.

[4] = UPA 30 mg, analysis vs historical reference value of PBO
[5] = UPA 30 mg, analysis vs in-trial PBO
[6] = Week 12, UPA 30 mg, Observed Case, n=39
[7] = Week 40, PBO/UPA 15 mg (switched at week 12), NRI-C, n=19
[8] = Week 40, UPA 30 mg/UPA 30 mg, NRI-C, n=47
[9] = Week 40, UPA 30 mg/UPA 30 mg, Observed Case, n=29

Compound: CC[C@@H]1CN(C(=O)NCC(F)(F)F)C[C@@H]1c1cnc2cnc3[nH]ccc3n12 [upadacitinib]
- HiSCR at Week 12, % (N), stratum TNF-Naïve ([1]; UPA 30 mg, NRI-C, N=35, listed as UPA): 37.1% (N = 35)
- Change in DLQI at Week 12, LS Mean (SE) [1, 4]: −2.4 (1.05)
- Change in HSSA odor at Week 12, LS Mean (SE) [1, 4]: -1.2
- Change in HSSA swelling at Week 12, LS Mean (SE) [1, 4]: -0.931
- Change in HSSA total symptom at Week 12, LS Mean (SE) [1, 4]: -0.969
- Change in HSSA worst drainage at Week 12, LS Mean (SE) [1, 4]: −1.131 (0.31)
- Change in DLQI at Week 12, LS Mean (SE) [1, 5]: -2.4
- Change in HSSA odor at Week 12, LS Mean (SE) [1, 5]: −1.171 (0.36)
- Change in HSSA swelling at Week 12, LS Mean (SE) [1, 5]: −0.922 (0.34)
- Change in HSSA total symptom at Week 12, LS Mean (SE) [1, 5]: −1.034 (0.27)
- Change in HSSA worst drainage at Week 12, LS Mean (SE) [1, 5]: −1.259 (0.30)
- Patients achieving HiSCR 90, n (%) ([1]; Week 12, UPA 30 mg, NRI-C, n=47, listed as UPA): 8.5% and 4 (8.5)^‡ %
- Patients achieving HiSCR 75, n (%) [1, 6]: 10 (25.6) %
- Patients achieving HiSCR 90, n (%) [1, 6]: 4 (10.3) %
- Patients achieving HiSCR, n (%) [1, 6]: 18 (46.2) %
- Patients achieving IHS4-55, n (%) [1, 6]: 19 (48.7) %
- Patients achieving HiSCR 75, n (%) [1, 7]: 7 (36.8) %
- Patients achieving HiSCR 90, n (%) [1, 7]: 4 (21.1) %
- Patients achieving HiSCR, n (%) [1, 7]: 10 (52.6) %
- Patients achieving IHS4-55, n (%) [1, 7]: 12 (63.2) %
- Patients achieving IHS4-55, n (%) ([1]; Week 40, PBO/UPA 15 mg (switched at week 12), Observed Case, n=14): 85.7%
- Patients achieving IHS4-55, n (%) ([1]; Week 40, PBO/UPA 15 mg (switched at week 12), Observed Case, n=14, listed as UPA): 12 (85.7) %
- Patients achieving HiSCR 75, n (%) [1, 8]: 18 (38.3) %
- Patients achieving HiSCR 90, n (%) [1, 8]: 9 (19.1) %
- Patients achieving HiSCR, n (%) [1, 8]: 22 (46.8) %
- Patients achieving IHS4-55, n (%) [1, 8]: 21 (44.7) %
- Patients achieving HiSCR 75, n (%) [1, 9]: 18 (62.1) %
- Patients achieving IHS4-55, n (%) [1, 9]: 72.4%
- Patients achieving IHS4-55, n (%) ([1]; Week 40, UPA 30 mg/UPA 30 mg, Observed Case, n=29, listed as UPA): 21 (72.4) %
- subjects achieving HiSCR at Week 12, n (%) ([1]; NRI-C): 38.3%
- subjects achieving HiSCR at Week 12, n (%) ([1]; NRI-C, listed as Upadacitinib): 18 (38.3) %
- subjects achieving Pain NRS30 at Week 12 among subjects with Baseline NRS ≥ 3, n (%) ([1]; NRI-C): 36.4%
- subjects achieving Pain NRS30 at Week 12 among subjects with Baseline NRS ≥ 3, n (%) ([1]; NRI-C, listed as UPA): 12 (36.4%)
- subjects achieving Pain NRS30 at Week 12 among subjects with Baseline NRS ≥ 3, n (%) ([1]; NRI-C, listed as Upadacitinib): 12 (36.4) %
- Flare during Period 1, n (%) [2]: 6 (12.8%)
- most frequently reported TEAE (≥5%) ([3]; Period 1, upadacitinib 30 mg QD group): headache, dizziness, and urinary tract infection
- Discontinued Study Drug during Period 2 (primary reason): Adverse event, n (%) ([3]; Placebo/UPA 15 mg, N=19): 0
- Discontinued Study Drug during Period 1: Adverse Event, n (%) ([3]; UPA 30 mg, N=47): (2.1) %
- Discontinued Study Drug during Period 2 (primary reason): Adverse event, n (%) ([3]; UPA 30 mg, N=47): 0
